# Measurements: patent US20250177425A1, “SAIKOSAPONIN C AS COMPOSITION FOR TREATING OR PREVENTING AGE-RELATED VASCULAR DISEASES INCLUDING ARTERIOSCLEROSIS” (AGINGTARGET, INC., priority 2022, published 2025)
# Legend:
# Format in all cases: cell-based, human
# [1] = tested on: p21, p27, and p16 in HUVEC; test: Western blotting of G1 phase growth arrest-inducing proteins; conditions: 5 μM and 20 μM pretreatment 2 hours, 33 mM high glucose 36 hours, dose-dependent
# Procedure: (§1) Similar to Experimental Example 1, a high-fat diet evaluation system at the cellular level was established.
# (§2) Specifically, two types of vascular endothelial cells, namely, HUVEC and HPAEC cells, were pretreated with Saikosaponin C at concentrations of 5 μM and 20 μM for 2 hours, then treated with high glucose (33 mM) for 48 hours, and then immobilized with cold 70% ethanol. The DNA of the immobilized vascular endothelial cells was stained with PI (propidium iodide, 50 μg/ml) solution and the cell cycle was analyzed using a flow cytometer. In addition, the expression of cell cycle regulatory proteins such as p21, p27, and p16 was analyzed after treatment with high glucose (33 mM) for 36 hours.
# (§3) Since cellular senescence is closely related to the arrest in the G1 phase of the cell cycle, the cell cycle was evaluated using flow cytometry (FIG. 4A and FIG. 4B). In addition, the expression of p21, p27, and p16 proteins, which are G1 phase growth arrest-inducing proteins, was measured through Western blotting (FIG. 4C, FIG. 4D).
# [2] = tested on: p21, p27, and p16 in HPAEC; test: as above; conditions: 5 μM and 20 μM pretreatment 2 hours, 33 mM high glucose 36 hours, dose-dependent
# Procedure: as §1, §2, §3
# HUVEC = test: MTT assay, high glucose-induced growth inhibition; conditions: 5 μM and 20 μM pretreatment 2 hours, 33 mM high glucose 72 hours, dose-dependent
# Procedure: (§4) A high-fat diet test system at the cellular level was established using 33 mM high glucose (HG), which is 6 times the standard glucose concentration of 5.5 mM in the vascular endothelial cell culture medium.
# (§5) Specifically, two types of endothelial cells, namely, human umbilical vein endothelial cells (HUVECs) and human pulmonary artery endothelial cells (HPAECs), were pretreated with 5 μM and 20 μM of Saikosaponin C (SSc) for 2 hours, and then treated with 33 mM of high glucose for 72 hours. Then, cell growth was analyzed using the MTT assay, which measures the mitochondrial metabolic capacity of living cells.
# (§6) Endothelial cell growth was assessed by measuring the absorbance of MTT formazan at a wavelength of 590 nm.
# HPAEC = test: MTT assay, high glucose-induced growth inhibition; conditions: 5 μM and 20 μM pretreatment 2 hours, 33 mM high glucose 72 hours, dose-dependent
# Procedure: as §4, §5, §6
# [3] = tested on: eNOS / nitric oxide in HPAEC; test: NOS-NO signaling: nitric oxide level, eNOS activity, expression, phosphorylation; conditions: 5 μM and 20 μM pretreatment 2 hours, 33 mM high glucose 36 hours, dose-dependent
# Procedure: as §1
# (§7) Specifically, two types of vascular endothelial cells, namely, HUVEC and HPAEC cells, were pretreated with Saikosaponin C at concentrations of 5 μM and 20 μM for 2 hours, and then treated with high glucose at a concentration of 33 mM for 36 hours. Then, the nitric oxide (NO) concentration, endothelial nitric oxide synthase (eNOS) activity, protein expression, and phosphorylation level were analyzed.
# (§8) Nitric oxide production was measured using a Nitric Oxide Assay Kit (FIG. 6A and FIG. 6B). Specifically, nitrate (NO3^−) and nitrite (NO2^−) levels were measured using nitrate reductase and Griess reagent. Nitric oxide synthase activity was measured using a NOS Activity Assay Kit (FIG. 6C and FIG. 6D) and the expression and phosphorylation (Ser114) of NOS were measured by Western blotting (FIG. 6E and FIG. 6F).
# [4] = tested on: eNOS / nitric oxide in HUVEC; test: as above; conditions: 5 μM and 20 μM pretreatment 2 hours, 33 mM high glucose 36 hours, dose-dependent
# Procedure: as §1, §7, §8
# [5] = tested on: THP-1 cells differentiated into macrophages; test: Macrophage foam cell formation by ox-LDL (Oil Red O staining); conditions: PMA-differentiated THP-1 macrophages; 5 μM and 20 μM pretreatment 2 hours, ox-LDL 100 μg/ml 24 hours
# Procedure: The differentiated macrophages were pretreated with Saikosaponin C at concentrations of 5 μM and 20 μM for 2 hours, and then treated with oxidized LDL (ox-LDL) (100 μg/ml), a foam cell inducer, for 24 hours. Then, the formation of foam cells from macrophages was observed. The foam cell formation was evaluated by microscopic analysis after Oil Red O staining of adsorbed lipid molecules and absorbance analysis using a microplate reader.
# The nucleus was stained with hematoxylin dye for 1 minute.
# [6] = tested on: ICAM-1 and VCAM-1 in HUVEC; test: Western blotting of adhesion proteins after TNF-α; conditions: 5 μM and 20 μM pretreatment 2 hours, TNF-α 20 ng/ml 8 hours
# Procedure: (§9) Specifically, two types of vascular endothelial cells, namely, HUVEC (human umbilical vein endothelial cells) and HCAEC (human coronary artery endothelial cells), were pretreated with Saikosaponin C at concentrations of 5 μM and 20 μM for 2 hours, and then treated with TNF-α (20 ng/ml) for 8 hours. Then, adhesion of monocyte-vascular endothelial cell and expression of cell adhesion molecules (ICAM-1, VCAM-1) of vascular endothelial cells were observed. […] The adhesion of monocyte-endothelial cells was evaluated by imaging analysis using a confocal microscope and fluorescence analysis using a microplate reader, and expression of adhesion proteins (ICAM-1 and VCAM-1) was evaluated by Western blotting.
# (§10) Calcein AM fluorescence was analyzed using a confocal microscope and a microplate reader, and the expression of cell adhesion proteins (ICAM-1, VCAM-1) were evaluated through Western blotting.
# (§11) FIGS. 9A and 9B show the results of analysis of monocyte-endothelial cell adhesion in two types of vascular endothelial cells (HUVEC, HCAEC) using a confocal microscope, and FIGS. 9C and 9D show the results of analysis of Calcein AM fluorescence (at an excitation wavelength of 488 nm, and at an emission wavelength of 517 nm) in the same experiment using a microplate reader. […]
# [7] = tested on: ICAM-1 and VCAM-1 in HCAEC; test: Western blotting of adhesion proteins after TNF-α; conditions: 5 μM and 20 μM pretreatment 2 hours, TNF-α 20 ng/ml 8 hours
# Procedure: as §9, §10, §11
compound,measurement,setting,value
CC1O[C@@H](O[C@@H]2C(CO[C@@H]3OC(CO)[C@@H](O)C(O)C3O)O[C@@H](O[C@H]3CC[C@]4(C)[C@H]5C=C[C@]67OC[C@@]8(CCC(C)(C)C[C@H]86)[C@@H](O)C[C@@]7(C)[C@]5(C)CC[C@H]4C3(C)C)C(O)C2O)C(O)C(O)[C@H]1O (stereo partly drawn) [Saikosaponin C],"high glucose-induced increase in the expression of p21, p27, and p16 proteins",[1],significantly abolished
same,"high glucose-induced increase in the expression of p21, p27, and p16 proteins",[2],significantly abolished
same,high glucose-induced cell growth inhibition (MTT),HUVEC,significantly alleviated
same,high glucose-induced cell growth inhibition (MTT),HPAEC,significantly alleviated
same,"high glucose-induced decrease in NOS-NO signaling (NO level, eNOS enzymatic activity, protein expression, phosphorylation)",[3],significantly alleviated
same,"high glucose-induced decrease in NOS-NO signaling (NO level, eNOS enzymatic activity, protein expression, phosphorylation)",[4],significantly alleviated
same,foam cell formation by lipid deposition (Oil Red O),[5],suppressed
same,"expression of adhesion proteins (ICAM-1, VCAM-1) of vascular endothelial cells",[6],inhibited
same,"expression of adhesion proteins (ICAM-1, VCAM-1) of vascular endothelial cells",[7],inhibited
